Measured values from patent US12091426B2, “Bifunctional degraders of hematopoietic progenitor kinase and therapeutic uses thereof” (Nurix Therapeutics, Inc., priority 2021, dated 2024).

Molecular target: T1, HPK1 (Homo sapiens, UniProt Q92918)
T1 construct: A HiBiT tag was introduced by CRISPR on the N terminus of HPK1 in Jurkat cells; host or cells: Jurkat cells (ATCC TIB-152), monoclonal line with CRISPR knock-in of HiBiT at the endogenous HPK1 locus
Experiment: HPK1 Cellular HiBit Degradation Assay
Assay type: cell-based
Settings: HiBiT HPK1 Jurkat cells, 24 hrs; for DC50: concentration at which 50% of HPK1 was remaining, read-out: DC50 Category; for Dmax: Jurkat, maximum degradation vs DMSO vehicle control, read-out: Dmax Category
Outline: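 Jurkat cells with CRISPR N-terminal HiBiT-tagged endogenous HPK1 treated 24 h at 37 °C with 11-point, 3.16-fold dilutions (10 uM to 0.1 nM final). HiBiT lytic luminescence gives % HPK1 remaining versus DMSO, with parental cells as background. Four-parameter fit yields DC50; Dmax = 100 minus lowest % remaining.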

T1 sequence (Q92918 whole entry): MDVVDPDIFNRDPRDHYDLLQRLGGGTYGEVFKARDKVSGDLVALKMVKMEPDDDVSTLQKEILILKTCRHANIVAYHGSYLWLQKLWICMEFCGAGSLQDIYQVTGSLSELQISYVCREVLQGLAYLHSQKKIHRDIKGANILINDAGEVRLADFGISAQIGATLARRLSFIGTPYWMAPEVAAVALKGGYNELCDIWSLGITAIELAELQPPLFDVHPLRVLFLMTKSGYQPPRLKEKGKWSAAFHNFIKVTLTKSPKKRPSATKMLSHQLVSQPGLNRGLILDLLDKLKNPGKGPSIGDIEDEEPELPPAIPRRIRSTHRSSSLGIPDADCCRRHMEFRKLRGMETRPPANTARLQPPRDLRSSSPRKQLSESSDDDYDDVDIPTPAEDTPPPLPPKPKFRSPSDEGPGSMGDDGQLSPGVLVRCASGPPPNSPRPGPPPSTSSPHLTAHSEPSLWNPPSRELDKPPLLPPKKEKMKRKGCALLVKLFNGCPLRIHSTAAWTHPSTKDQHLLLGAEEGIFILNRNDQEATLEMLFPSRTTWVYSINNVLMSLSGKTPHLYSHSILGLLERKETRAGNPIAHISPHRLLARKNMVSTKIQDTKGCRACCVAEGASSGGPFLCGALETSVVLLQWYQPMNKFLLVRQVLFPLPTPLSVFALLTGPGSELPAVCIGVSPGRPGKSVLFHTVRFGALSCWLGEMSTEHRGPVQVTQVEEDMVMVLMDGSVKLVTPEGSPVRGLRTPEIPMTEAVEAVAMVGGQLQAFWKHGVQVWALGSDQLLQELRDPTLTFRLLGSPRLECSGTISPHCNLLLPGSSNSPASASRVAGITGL

Row | SMILES | DC50 [nM] | Dmax [%]
1 | CC(C)n1cnc2cc(-c3ccc4c(c3)N([C@H]3C[C@@H](N5CCCCC5)C3)C(=O)C43CCN(C(=O)[C@@H]4C[C@@H]5C[C@H]4CN5C(=O)C4CCN(c5ccc(C6CCC(=O)NC6=O)cn5)CC4)CC3)nc(NC3CC3)c21 (mixture of isomers) [Example 265, (3RS)-3-(6-{4-[(S,4R,5R)-5-({6-[4-(cyclopropylamino)-3-(propan-2-yl)-3H-imidazo[4,5-c]pyridin-6-yl]-2-oxo-1-[(1S,3S)-3-(piperidin-1-yl)cyclobutyl]-1,2-dihydrospiro[indole-3,4′-piperidin]-1′-yl}carbonyl)-2-azabicyclo[2.2.1]heptane-2-carbonyl]piperidin-1-yl}pyridin-3-yl)piperidine-2,6-dione] | < 100 | 70 to 85
2 | CC(C)n1cnc2cc(-c3ccc4c(c3)N([C@H]3C[C@@H](N5CCCCC5)C3)C(=O)C43CCN(C(=O)C4(C)CCN(C(=O)C5CCN(c6ccc(C7CCC(=O)NC7=O)cc6F)CC5)CC4)CC3)nc(NC3CC3)c21 (mixture of isomers) [Example 152, (3RS)-3-(4-{4-[4-({6-[4-(cyclopropylamino)-3-isopropylimidazo[4,5-c]pyridin-6-yl]-2-oxo-1-[(1S,3S)-3-(piperidin-1-yl)cyclobutyl]spiro[indole-3,4′-piperidin]-1′-yl}carbonyl)-4-methylpiperidine-1-carbonyl]piperidin-1-yl}-3-Fluorophenyl)piperidine-2,6-dione] | < 100 | 70 to 85
3 | CC(C)n1cnc2cc(-c3ccc4c(c3)N([C@H]3C[C@@H](N5CCCCC5)C3)C(=O)C43CCN(C(=O)[C@@H]4CCN(C(=O)[C@H]5CC[C@H](N(C)c6cccc7c6C(=O)N(C6CCC(=O)NC6=O)C7=O)CC5)C4)CC3)nc(NC3CC3)c21 (mixture of isomers) [Example 129, 2-[(3RS)-2,6-dioxopiperidin-3-yl]-4-{methyl[(1R,4R)-4-[(3R)-3-({6-[4-(cyclopropylamino)-3-(propan-2-yl)-3H-imidazo[4,5-c]pyridin-6-yl]-2-oxo-1-[(1S,3S)-3-(piperidin-1-yl)cyclobutyl]-1,2-dihydrospiro[indole-3,4′-piperidin]-1′-yl}carbonyl)pyrrolidine-1-carbonyl]cyclohexyl]amino}-2,3-dihydro-1H-isoindole-1,3-dione] | 100 to 500 | 70 to 85

Continued, values first:

Row | DC50 [nM] | Dmax [%] | SMILES
4 | < 100 | > 85 | CC(C)n1cnc2cc(-c3ccc4c(c3)N([C@H]3C[C@@H](N5CCCCC5)C3)C(=O)C43CCN(C(=O)C4CC5(C4)CN(C(=O)C4CCN(c6ccc(C7CCC(=O)NC7=O)cn6)CC4)C5)CC3)nc(NC3CC3)c21 (stereo partly drawn) [Example 182, 3-(6-{4-[6-({6-[4-(cyclopropylamino)-3-(propan-2-yl)-3H-imidazo[4,5-c]pyridin-6-yl]-2-oxo-1-[(1S,3S)-3-(piperidin-1-yl)cyclobutyl]-1,2-dihydrospiro[indole-3,4′-piperidine]-1′-yl}carbonyl)-2-azaspiro[3.3]heptane-2-carbonyl]piperidin-1-yl}pyridin-3-yl)piperidine-2,6-dione]
5 | < 100 | 70 to 85 | CC(C)n1cnc2cc(-c3ccc4c(c3)N([C@H]3C[C@@H](N5CCCCC5)C3)C(=O)C43CCN(C(=O)C4CCN(C(=O)C5CCN(c6ccc(C7CCC(=O)NC7=O)cn6)CC5)CC4(F)F)CC3)nc(NC3CC3)c21 (mixture of isomers) [Example 273, (3RS)-3-(6-{4-[4-({6-[4-(cyclopropylamino)-3-(propan-2-yl)-3H-imidazo[4,5-c]pyridin-6-yl]-2-oxo-1-[(1S,3S)-3-(piperidin-1-yl)cyclobutyl]-1,2-dihydrospiro[indole-3,4′-piperidin]-1′-yl}carbonyl)-3,3-Difluoropiperidine-1-carbonyl]piperidin-1-yl}pyridin-3-yl)piperidine-2,6-dione]
6 | 500 to 1000 | 50 to 70 | CC(C)n1cnc2cc(-c3ccc4c(c3)N([C@H]3C[C@@H](N5CCCCC5)C3)C(=O)C43CCN(C(=O)[C@@H]4CCN(C(=O)[C@H]5CC[C@H](Nc6ccc(C(=O)NC7CCC(=O)NC7=O)nc6)CC5)C4)CC3)nc(Nc3ccccc3F)c21 (mixture of isomers) [Example 7, N-[(3RS)-2,6-dioxopiperidin-3-yl]-5-{1[(1R,4R)-4-[(3R)-3-[(6-{4-[(2-fluorophenyl)amino]-3-(propan-2-yl)-3H-imidazo[4,5-c]pyridin-6-yl}-2-oxo-1-[(1S,3S)-3-(piperidin-1-yl)cyclobutyl]-1,2-dihydrospiro[indole-3,4′-piperidin]-1′-yl)carbonyl]pyrrolidine-1-carbonyl]cyclohexyl]amino}pyridine-2-carboxamide]
